According to US20250288553A1, “Antimicrobial Compositions and Uses for Treatment of Clostridioides difficile, Mycobacterium tuberculosis, and Enterococcus faecalis Infection” (priority 2022, published 2025):
≈ marks a conversion by molar mass, not a printed value. Where “and” joins values, the source holds several entries; their conditions need not be identical. Identical values can stand only once. Like-named read-outs stand apart in the source and are kept apart here.

Tests used:
[1] = test system: Mycobacterium tuberculosis H37Ra ATCC 25177; test: MIC against Mtb H37Ra, resazurin microtiter assay (REMA); assay type: cell-based; details: for MIC: Mycobacterium tuberculosis, 336 h
[2] = test system: TcdA production in C. difficile NAP1; test: Toxin analysis: extracellular TcdA of C. difficile NAP1 at sub-MICs, western blot; assay type: cell-based, Clostridioides difficile; set-up: Concentration at which TcdA was undetectable: unit not given here; details: for Effect on TcdA toxin production: NAP1 challenged with 0.5×, 0.25×, 0.125× MIC, 48 h, TcdA normalized to total protein
Experimental: After a 48 h incubation of NAP1 challenged with several dilutions of each compound, extracellular toxin in spent media derived from triplicate cultures was assessed with western blots using a monoclonal antibody against TcdA. Semi-quantitative analysis of toxin levels was performed via densitometry of TcdA band intensity with respect to total protein as measured by the Bradford assay. Semi-quantitative plots are shown below each representative blot. (a) Toxin production in BHIS (NAP1) and BHIS with 5% DMSO (vehicle). (b) Toxin production from cultures challenged with sub-MICs of fidaxomicin, (c) vancomycin, and (d-j) (+)-puupehenone and selected derivatives. Data points represent the means of adjusted toxin levels derived from triplicate cultures, while error bars represent standard deviations. Statistical analysis was performed in GraphPad Prism 8 using unpaired t-tests. *P<0.05; **P<0.01.
To account for changes in biomass, a semi-quantitative analysis of TcdA production was performed by normalizing the target bands from representative western blots to the amount of total protein in each sample.
Toxin analysis. Toxin production was determined by analyzing the amount of extracellular toxin in the cultures from the ASTs described above. At 48 h, total protein of each culture was determined with the Bradford assay using bovine serum albumin (BSA) as a standard.^53 Cultures were then centrifuged at 5,000×g for 5 minutes to clear the supernatants which were separately collected and frozen at −20° C. After thawing at room temperature, cell-free supernatants were mixed 1:1 with 2× Laemmli buffer and incubated in a sand bath at 100° C. for 5 minutes. Twenty microliters of denatured samples were loaded onto 7.5% Tris-glycine gels and electrophoresed at 200 V for 1 h. After electrophoresis, samples were transferred to polyvinylidene difluoride membranes at 4° C. overnight at 30 V. Membranes were incubated in a blocking buffer (20 mM Tris-HCl, 150 mM NaCl, 0.01 mM ethylenediaminetetraacetic acid, 0.1% Tween 20, 1% BSA, [pH 7.5]) for 1 h at room temperature. TcdA was detected with a monoclonal mouse anti-TcdA antibody (PCG4.1, Novus Biologicals) and a rabbit anti-mouse antibody conjugated with alkaline phosphatase. Blots were visualized with a ChemiDoc XRS+ imaging system (Bio-Rad).
Semi-quantitative analysis of TcdA was performed using Image Lab 6.0 software (Bio-Rad). Briefly, after subtracting background noise, peaks corresponding to the target band were selected with the software's Lane Profile tool. The density of each peak generated a value (arbitrary units) that was normalized to the total protein amount of each respective sample. […] These losses of activity prevented us from performing statistical analysis from multiple experiments, as the sub-MICs were not always the same. Since there were no changes to the methodology described, several other reasons could have accounted for decreased activity, such as compound stability, freeze-thaw, and adherence to plastic. Nevertheless, the toxin results were reproducible, irrespective of the exact sub-MICs on different days.

[3] = test system: dormant Mtb-lux (Mycobacterium tuberculosis CDC1551 with pMV306hsp+LuxG13); assay type: cell-based; details: for R/D (MICR/MICD, Mtb-lux): ratio replicating MIC to dormant MIC
Cytotoxicity assay HepG2 = details: human
[4] = test system: HepG2 (human liver carcinoma) cell line; test: Cytotoxicity assay HepG2
[5] = test system: replicating Mtb-lux (Mycobacterium tuberculosis CDC1551 with pMV306hsp+LuxG13); assay type: cell-based
[6] = Cytotoxicity assay J774A.1; assay type: cell-based, murine; details: mouse, J774A.1 macrophage-like cells; J774A.1 cells; read-out: Cytotoxicity (IC50) J774
Experimental: (§1) To evaluate the selectivity of the top six compounds from the Mtb-lux activity screen (Table 2), cytotoxicity for two different mammalian cell lines was determined. The IC50 was calculated for each compound against J774A.1 and HepG2 cell lines. The selectivity index (SI) for both replicating and dormant conditions was then calculated by taking the IC50 and dividing it by the corresponding MIC (SIR=IC50/MICR, SID=IC50/MICD)^40. Consistent with the experience, the J774 macrophage cell line was more sensitive to all compounds tested. […] Based on these observations, this triacetate protected puupehenone represents a promising candidate for further optimization.
(§2) Cytotoxicity assay: Cytotoxicity was assessed using J774A.1 (murine macrophage-like) and HepG2 (human liver carcinoma) cell lines using 2-fold dilution of the compounds as described previously^42, 43. IC50 values were determined using nonlinear regression fitting of the databy GraphPad Prism. The selectivity Index (SI) was calculated as IC50/MIC.

[7] = test system: J774A.1 (murine macrophage-like) cell line; test: Cytotoxicity assay J774A.1; assay type: cell-based
Experimental: as §1, §2

[8] = test system: Clostridioides difficile NAP1; test: MIC against C. difficile NAP1, modified broth microdilution; details: for MIC: Clostridioides difficile, NAP1, 48 h, read-out: MIC C. difficile, NAP1, modified broth microdilution, 48 h, anaerobic; for MIC C. difficile: NAP1, modified broth microdilution, 48 h, anaerobic
[9] = test system: Enterococcus faecalis ATCC 29212; test: MIC against E. faecalis, REMA; details: Enterococcus faecalis, ATCC29212, 24 h, read-out: MIC E. faecalis
[10] = test system: Bacillus subtilis ATCC 23857; test: MIC against B. subtilis, REMA
[11] = test system: Staphylococcus aureus ATCC 25923; test: MIC against S. aureus, REMA; details: visual, 24 h
[12] = determined visually by REMA assay, 14-day incubation, read-out: MIC Mtb H37Ra
[13] = read-out: MIC Mtb H37Ra, determined visually by REMA assay, 14-day incubation

SMILES	MICD (Mtb-lux) [3]	R/D (MICR/MICD, Mtb-lux) [3]	IC50 (Cytotoxicity assay HepG2)	SI (SID) HepG2 [4]	SI (SIR) HepG2 [4]	MICR (Mtb-lux) [5]	IC50 [6]	SI (SID) J774 [7]	SI (SIR) J774 [7]	MIC C. difficile [8]	also measured
CC1(C)CCC[C@]2(C)[C@H]3C=C4C=C(O)C(=O)C=C4O[C@@]3(C)CC[C@@H]12 [Compound 1, (+)-Puupehenone]	0.5 µg/mL	6.0	70.6 µM	141.2	23.5	3.0 µg/mL	23.2 µM	46.4	7.7	2.0 µg/mL (≈ 6.09 µM)	MIC [1, 12]: 32.8 µg/mL (≈ 99.9 µM); Concentration at which TcdA was undetectable ([2]; NAP1, 48 h, western blot): 1; MIC [8]: 2 to 4 µg/mL (≈ 6.09 to 12.2 µM)
CCC(=O)Oc1cc2c(cc1OC(=O)CC)[C@@H](OC)[C@@H]1[C@@]3(C)CCCC(C)(C)[C@@H]3CC[C@]1(C)O2 [Compound 16]	1.7 µg/mL	5.2	> 200 µM	> 117.6	> 22.5	8.9 µg/mL	60.6 µM	35.7	6.8	–	MIC [1, 12]: 23.6 µg/mL (≈ 49.9 µM)
CO[C@@H]1c2cc(OC(=O)C(C)C)c(OC(=O)C(C)C)cc2O[C@@]2(C)CC[C@H]3C(C)(C)CCC[C@]3(C)[C@@H]12 [Compound 17]	10.1 µg/mL	0.9	–	–	–	8.6 µg/mL	–	–	–	–	MIC [1, 12]: 25 µg/mL (≈ 49.9 µM)
CO[C@@H]1c2cc(OC(=O)c3ccccc3)c(OC(=O)c3ccccc3)cc2O[C@@]2(C)CC[C@H]3C(C)(C)CCC[C@]3(C)[C@@H]12 [Compound 18]	48.3 µg/mL	–	–	–	–	>200 µg/mL	–	–	–	–	–
CO[C@@H]1c2cc(OC(=O)C(C)(C)C)c(O)cc2O[C@@]2(C)CC[C@H]3C(C)(C)CCC[C@]3(C)[C@@H]12 [Compound 19, 15-α-methoxypuupehenol monopivalate]	1.5 µg/mL	–	> 200 µM	> 133.3	> 15.7	12.7 µg/mL	56.4 µM	37.6	4.4	4.0 µg/mL (≈ 9 µM)	MIC [1, 13]: 44.4 µg/mL (≈ 99.9 µM); Effect on TcdA toxin production [2]: did not appear to substantially change toxin production; MIC [9]: 22.2 µg/mL (≈ 50 µM); MIC ([10]; Bacillus subtilis, ATCC23857, 24 h, read-out: MIC B. subtilis): 22.2 µg/mL (≈ 50 µM); MIC [8]: 2 to 4 µg/mL (≈ 4.5 to 9 µM)
CC(=O)Oc1cc2c(cc1OC(C)=O)[C@@H](OC(C)=O)[C@@H]1[C@@]3(C)CCCC(C)(C)[C@@H]3CC[C@]1(C)O2 [Compound 20, 15-α-acetoxypuupehenol diacetate]	1.4 µg/mL	4.3	> 200 µM	> 142.3	> 33.3	6.0 µg/mL	> 200 µM	> 142.3	> 33.3	2.0 µg/mL	MIC [1, 13]: 11.8 µg/mL; Effect on TcdA toxin production [2]: decreased the amount of toxin in a similar concentration-dependent manner; Cytotoxicity (IC50) HepG2 ([4]; HepG2 cells): no cytotoxicity; Cytotoxicity (IC50) J774 ([7]; J774A.1 cells): no cytotoxicity; MIC [8]: 2 to 4 µg/mL
CCC(=O)Oc1cc2c(cc1OC(=O)CC)[C@@H](OC(=O)CC)[C@@H]1[C@@]3(C)CCCC(C)(C)[C@@H]3CC[C@]1(C)O2 [Compound 21]	1.0 µg/mL and 1 µg/mL	2.8	64.2 µM	64.2	22.9	2.8 µg/mL	26.4 µM	26.4	9.4	–	MIC [1, 13]: 12.9 µg/mL (≈ 25.1 µM); MIC Mtb H37Ra ([1]; determined visually by REMA assay, 14-day incubation): 12.85 µg/mL (≈ 25 µM)
CC(C)C(=O)Oc1cc2c(cc1OC(=O)C(C)C)[C@@H](OC(=O)C(C)C)[C@@H]1[C@@]3(C)CCCC(C)(C)[C@@H]3CC[C@]1(C)O2 [Compound 22]	88.8 µg/mL	0.08	–	–	–	7.6 µg/mL	–	–	–	–	–
CC1(C)CCCC2(C)C1CCC(C)(O)C2Cc1ccc(OCc2ccccc2)cc1 (centres unmarked) [Compound 33]	40.4 µg/mL	1.4	–	–	–	57.5 µg/mL	–	–	–	–	MIC Mtb H37Ra [1]: 40.6 µg/mL (≈ 99.8 µM)
CC1(C)CCC[C@]2(C)[C@@H](Cc3cc(O)ccc3O)[C@](C)(O)CC[C@@H]12 [Compound 41, (+)-Yahazunol]	–	–	–	–	–	–	–	–	–	did not inhibit	MIC S. aureus [11]: 33.2 µg/mL (≈ 99.9 µM); MIC B. subtilis ([10]; REMA, visual, 24 h): 33.2 µg/mL (≈ 99.9 µM)
CN[C@H](CC(C)C)C(=O)N[C@H]1C(=O)N[C@@H](CC(N)=O)C(=O)N[C@H]2C(=O)N[C@H]3C(=O)N[C@H](C(=O)N[C@H](C(=O)O)c4cc(O)cc(O)c4-c4cc3ccc4O)[C@H](O)c3ccc(c(Cl)c3)Oc3cc2cc(c3O[C@@H]2O[C@H](CO)[C@@H](O)[C@H](O)[C@H]2O[C@H]2C[C@](C)(N)[C@H](O)[C@H](C)O2)Oc2ccc(cc2Cl)[C@H]1O [vancomycin, reference compound]	–	–	–	–	–	–	–	–	–	–	Effect on TcdA toxin production [2]: reduced toxin production in a concentration-dependent manner
